Test results reported in US8338587B2, “Compounds” (AstraZeneca AB, priority 2009, dated 2012).

Molecular target: T1, recombinant human GR (Homo sapiens, UniProt P04150)
T1 construct: purchased Panvera/Invitrogen P2812 (kit P2893)
T1 sequence (P04150 1-777): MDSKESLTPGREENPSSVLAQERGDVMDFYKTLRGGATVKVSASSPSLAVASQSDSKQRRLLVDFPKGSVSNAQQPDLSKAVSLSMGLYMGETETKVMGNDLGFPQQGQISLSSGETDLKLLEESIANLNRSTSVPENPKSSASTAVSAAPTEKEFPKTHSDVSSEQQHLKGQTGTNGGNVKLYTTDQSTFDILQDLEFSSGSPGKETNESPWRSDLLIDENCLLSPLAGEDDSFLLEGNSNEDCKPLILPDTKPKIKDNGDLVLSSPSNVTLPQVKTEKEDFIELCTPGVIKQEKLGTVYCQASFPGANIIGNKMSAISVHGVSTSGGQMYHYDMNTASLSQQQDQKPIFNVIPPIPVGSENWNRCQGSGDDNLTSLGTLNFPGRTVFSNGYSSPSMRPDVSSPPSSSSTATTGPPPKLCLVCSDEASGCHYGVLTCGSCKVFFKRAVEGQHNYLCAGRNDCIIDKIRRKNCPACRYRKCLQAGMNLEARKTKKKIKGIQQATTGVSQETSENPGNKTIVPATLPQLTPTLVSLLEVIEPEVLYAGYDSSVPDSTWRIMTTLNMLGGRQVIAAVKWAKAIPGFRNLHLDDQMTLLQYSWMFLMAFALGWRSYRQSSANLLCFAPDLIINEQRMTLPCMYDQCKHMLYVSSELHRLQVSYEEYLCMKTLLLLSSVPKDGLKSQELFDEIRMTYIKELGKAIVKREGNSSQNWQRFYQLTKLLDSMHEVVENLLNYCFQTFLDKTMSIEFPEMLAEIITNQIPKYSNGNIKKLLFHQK
Test: Human Glucocorticoid Receptor (GR) Assay (fluorescence polarization competition, Panvera/Invitrogen kit)
Details: GS Red Fluoromone tracer, 2 hours at room temperature, 100% control 10 μM Dexamethasone, read-out: Inhibition of GR binding, IC50
Experimental: Human Glucocorticoid Receptor (GR) Assay The assay is based on a commercial kit from Panvera/Invitrogen (Part number P2893). The assay technology is fluorescence polarization. The kit utilises recombinant human GR (Panvera, Part number P2812), a Fluoromone™ labelled tracer (GS Red, Panvera, Part number P2894) and a Stabilizing Peptide 10× (Panvera, Part number P2815). The GR and Stabilizing Peptide reagents are stored at −70° C. while the GS Red is stored at −20° C. Also included in the kit are 1M DTT (Panvera, Part number P2325, stored at −20° C.) and GR Screening buffer 10× (Panvera, Part number P2814, stored at −70° C. initially but once thawed stored at room temperature). Avoid repeated freeze/thaws for all reagents. The GR Screening buffer 10× comprises 100 mM potassium phosphate, 200 mM sodium molybdate, 1 mM EDTA and 20% DMSO. Test compounds (1 μL) and controls (1 μL) in 100% DMSO were added to black is polystyrene 384-well plates (Greiner low volume black flat-bottom, part number 784076). 0% control was 100% DMSO and 100% control was 10 μM Dexamethasone. Background solution (8 μL; assay buffer 10×, Stabilizing Peptide, DTT and ice cold MQ water) was added to the background wells. GS Red solution (7 μL; assay buffer 10×, Stabilizing Peptide, DTT, GS Red and ice cold water) was added to all wells except background wells. GR solution (7 μL; assay buffer 10×, Stabilizing Peptide, DTT, GR and ice cold water) was added to all wells. The plate was sealed and incubated in a dark at room temperature for 2 hours. The plate was read in an Analyst plate reader (LJL Biosystems/Molecular Devices Corporation) or other similar plate reader capable of recording fluorescence polarization (excitation wavelength 530 nm, emission wavelength 590 nm and a dichroic mirror at 561 nm).

IC50 [nM] | SMILES
1.1 | COCC(=O)O[C@]1(C(=O)SCC#N)CC[C@H]2[C@@H]3C[C@H](C)C4=Cc5c(cnn5-c5ccc(F)nc5)C[C@]4(C)[C@H]3[C@@H](O)C[C@@]21C [Example 24, (1R,3aS,3bS,5S,10aR,10bS,11S,12aS)-1-{[(Cyanomethyl)sulfanyl]carbonyl}-7-(6-fluoropyridin-3-yl)-11-hydroxy-5,10a,12a-trimethyl-1,2,3,3a,3b,4,5,7,10,10a,10b,11,12,12a-tetradecahydrocyclopenta[5,6]naphtho[1,2-f]indazol-1-yl methoxyacetate]
1.2 | C[C@H]1C[C@@H]2[C@H]([C@@H](O)C[C@@]3(C)[C@H]2CC[C@]3(OC(=O)C2CC2)C(=O)SCF)[C@@]2(C)Cc3cnn(-c4ccc(F)nc4)c3C=C12 [Example 25, (1R,3aS,3bS,5S,10aR,10bS,11S,12aS)-1-{[(Fluoromethyl)sulfanyl]carbonyl}-7-(6-fluoropyridin-3-yl)-11-hydroxy-5,10a,12a-trimethyl-1,2,3,3a,3b,4,5,7,10,10a,10b,11,12,12a-tetradecahydrocyclopenta[5,6]naphtho[1,2-f]indazol-1-yl cyclopropanecarboxylate]
17 | CCC(=O)O[C@]1(C(=O)SCC#N)[C@H](C)C[C@H]2[C@@H]3CCC4=Cc5c(cnn5-c5ccc(F)cc5)C[C@]4(C)[C@@]3(F)[C@@H](O)C[C@@]21C [Example 26, (1R,2R,3aS,3bS,10aS,10bR,11S,12aS)-10b-Fluoro-1-{[(cyanomethyl)sulfanyl]carbonyl}-7-(4-fluorophenyl)-11-hydroxy-2,10a,12a-trimethyl-1,2,3,3a,3b,4,5,7,10,10a,10b,11,12,12a-tetradecahydrocyclopenta[5,6]naphtho[1,2-f]indazol-1-yl propanoate]
6 | COCC(=O)O[C@]1(C(=O)SCC#N)[C@H](C)C[C@H]2[C@@H]3CCC4=Cc5c(cnn5-c5ccc(F)cc5)C[C@]4(C)[C@@]3(F)[C@@H](O)C[C@@]21C [Example 27, (1R,2R,3aS,3bS,10aS,10bR,11S,12aS)-10b-Fluoro-1-{[(cyanomethyl)sulfanyl]carbonyl}-7-(4-fluorophenyl)-11-hydroxy-2,10a,12a-trimethyl-1,2,3,3a,3b,4,5,7,10,10a,10b,11,12,12a-tetradecahydrocyclopenta[5,6]naphtho[1,2-f]indazol-1-yl methoxyacetate]
15 | C[C@@H]1C[C@H]2[C@@H]3CCC4=Cc5c(cnn5-c5ccc(F)cc5)C[C@]4(C)[C@@]3(F)[C@@H](O)C[C@]2(C)[C@@]1(OC(=O)c1cocn1)C(=O)SCF [Example 28, (1R,2R,3aS,3bS,10aS,10bR,11S,12aS)-10b-Fluoro-1-{[(fluoromethyl)sulfanyl]carbonyl}-7-(4-fluorophenyl)-11-hydroxy-2,10a,12a-trimethyl-1,2,3,3a,3b,4,5,7,10,10a,10b,11,12,12a-tetradecahydrocyclopenta[5,6]naphtho[1,2-f]indazol-1-yl 1,3-oxazole-4-carboxylate]
5.5 | C[C@@H]1C[C@H]2[C@@H]3CCC4=Cc5c(cnn5-c5ccc(F)cc5)C[C@]4(C)[C@@]3(F)[C@@H](O)C[C@]2(C)[C@@]1(OC(=O)c1cocn1)C(=O)SCC#N [Example 29, (1R,2R,3aS,3bS,10aS,10bR,11S,12aS)-10b-Fluoro-1-{[(cyanomethyl)sulfanyl]carbonyl}-7-(4-fluorophenyl)-11-hydroxy-2,10a,12a-trimethyl-1,2,3,3a,3b,4,5,7,10,10a,10b,11,12,12a-tetradecahydrocyclopenta[5,6]naphtho[1,2-f]indazol-1-yl 1,3-oxazole-4-carboxylate]
1.6 | COCC(=O)O[C@]1(C(=O)SCC#N)[C@H](C)C[C@H]2[C@@H]3CCC4=Cc5c(cnn5-c5ccc(F)nc5)C[C@]4(C)[C@@]3(F)[C@@H](O)C[C@@]21C [Example 30, (1R,2R,3aS,3bS,10aS,10bR,11S,12aS)-10b-Fluoro-1-{[(cyanomethyl)sulfanyl]carbonyl}-7-(6-fluoropyridin-3-yl)-11-hydroxy-2,10a,12a-trimethyl-1,2,3,3a,3b,4,5,7,10,10a,10b,11,12,12a-tetradecahydrocyclopenta[5,6]naphtho[1,2-f]indazol-1-yl methoxyacetate]
